Measured values: patent publication US20020128232A1, “Heterocyclic angiogenesis inhibitors” (priority 2000, published 2002)
Structures can show the parent of a compound that is named as a salt. Where two headings read alike, the source gives them in different places. Marks after values point to notes of the source that are not given here.

Test system: rat aorta ring
Experiment: Rat aorta assay for angiogenesis inhibition (rat aorta ring model, micro-vessel growth scored)
Type: cell-based
Settings: for inhibition at 100 µg/mL / inhibition at 20 µg/mL / inhibition at 50 µg/mL / inhibition at 4 µg/mL / inhibition at 10 µg/mL: Rattus norvegicus
Text: The rat aorta ring model based on that described by Nicosia and Ottinetti (Nicosia, R. F. et al., Lab. Investigation 63: 115, 1990; Nicosia, R. F. et al., Cell. Dev. Bio. 26: 119-128, 1990), was used throughout the assay.
The agarose was made up as a 1.5% solution in distilled water and brought to the boil to form a clear solution which was poured into sterile 9 cm petri dishes, covered and allowed to cool and set.
Maintaining sterile conditions, agarose rings were obtained by punching two concentric circles, with sterile 10 and 17 mm hole punches, respectively, in the agarose gel. Using sterile forceps, the rings are removed and placed, three per well in each of the 6-well plates.
The MEM was prepared according to manufacturer's directions, but before filtering through a 0.22 μm filter, HEPES and L-glutamine were added to give 10 mM and 1 mM concentrations respectively with pH adjusted to 7.4. Eight hundred mL of this medium were filtered through a 0.2 μm filter along with the antibiotics (50 mg/L Gentamycin sulphate and 2.5 mg/L Amphotericin B) and 200 mL of FCS (to give 20%) to yield one liter of medium.
The aorta was removed from a 3-4 month male Copenhagen rat and transferred to a dissecting dish where it was cleaned and carefully stripped of the fibroadipose tissue surrounding it. Rings of 0.5 mm were cut, using a fresh scalpel blade, from the length of the aorta. These were kept under sterile conditions in a biohazard hood where they were washed 12 times with MEM.
Before transferring the aortic rings to the culture plate, the bottom of each agarose well was coated with 150 μL of clotting fibrinogen. Fibrinogen was made up as a […] solution in MEM, while Thrombin made up in distilled water to give a concentration of 50 U/mL. The fibrinogen (1 mL) and the thrombin (20 μL) reacted within 30 sec to form a solid gel.
The aortic rings were transferred to the 6-well plates, with one ring placed in the center of each agarose well. Fresh fibrinogen/thrombin was made up as before and 150 μL was used to seal in each aortic ring. The gels were rested for approximately 2 hours before the medium was added.
[…] The compounds were made up as 6 mg/mL solution in water or DMSO. The test solutions were added to each well with the medium.
Six mL of MEM were carefully added to each of three wells to become the controls. MEM, along with the test compounds were added to the remaining wells and all were covered and transferred to the CO2 Incubator at 37° C., where they were kept for the next 14 days.
However, by the fifth day, there were noticeable changes in the tissue. Micro-vessels were seen and scored. We have based the scoring method on that used by Liekens et al., (Liekins, S. et al., Oncol. Res. 9: 173-181, 1997) in which 0 meant no vessels and 10 meant maximum vessels; the score is then converted into a percentage inhibition of vessel growth.

[1] = 120 h, 100 μg/ml, day 5, read-out: Growth Inhibition Day 5 (%)
[2] = 264 h, 100 μg/ml, day 11, read-out: Growth Inhibition Day 11 (%)
[3] = 100 μg/ml, test slow to establish, read after 15 days (footnote *), read-out: Growth inhibition after 15 days
[4] = 120 h, 20 μg/ml, day 5, read-out: Growth Inhibition Day 5 (%)
[5] = 120 h, 50 μg/ml, day 5, read-out: Growth Inhibition Day 5 (%)
[6] = 264 h, 20 μg/ml, day 11, read-out: Growth Inhibition Day 11 (%)
[7] = 264 h, 50 μg/ml, day 11, read-out: Growth Inhibition Day 11 (%)
[8] = 120 h, 10 μg/ml, day 5, read-out: Growth Inhibition Day 5 (%)

## O=C(Nc1cccc(B(O)O)c1)n1c(=O)[nH]c2ccccc21 [Example 2, N-(Phenyl-3-boronic acid)-2,3-dihydro-2-oxo-1H-benzimidazole-1-carboxamide]
4 μg/ml, day 5
  Growth Inhibition Day 5 (%): 50%
4 μg/ml, day 11
  Growth Inhibition Day 11 (%): 0%
20 μg/ml, day 5
  Growth Inhibition Day 5 (%): 100%
20 μg/ml, day 11
  Growth Inhibition Day 11 (%): 100%
50 μg/ml, day 5
  Growth Inhibition Day 5 (%): 100%
50 μg/ml, day 11
  Growth Inhibition Day 11 (%): 100%
100 μg/ml, test slow to establish, read after 15 days (footnote *)
  Growth inhibition after 15 days: 100* %

## O=C(O)c1cccc(NC(=O)n2c(=O)[nH]c3ccccc32)c1 [Example 3, N-(3-Carboxyphenyl)-2,3-dihydro-2-oxo-1H-benzimidazole-1-carboxamide]
[1]
  inhibition at 100 µg/mL: 60%
[2]
  inhibition at 100 µg/mL: 60%

## O=C(O)c1ccc(NC(=O)n2c(=O)[nH]c3ccccc32)cc1 [Example 4, N-(4-Carboxyphenyl)-2,3-dihydro-2-oxo-1H-benzimidazole-1-carboxamide]
[3]
  inhibition at 100 µg/mL: 100%
[4]
  inhibition at 20 µg/mL: 100%
[5]
  inhibition at 50 µg/mL: 90%
[6]
  inhibition at 20 µg/mL: 70%
[7]
  inhibition at 50 µg/mL: 95%

## O=C(O)c1ccccc1NC(=O)n1c(=O)[nH]c2ccccc21 [Example 5, N-(2-Carboxyphenyl)-2,3-dihydro-2-oxo-1H-benzimidazole-1-carboxamide]
[3]
  inhibition at 100 µg/mL: 90%
[4]
  inhibition at 20 µg/mL: 0%
[5]
  inhibition at 50 µg/mL: 10%
[6]
  inhibition at 20 µg/mL: 0%
[7]
  inhibition at 50 µg/mL: 0%

## O=C(O)Cc1ccc(NC(=O)n2c(=O)[nH]c3ccccc32)cc1 [Example 7, N-(4-Carboxymethylphenyl)-2,3-dihydro-2-oxo-1H-benzimidazole-1-carboxamide]
[3]
  inhibition at 100 µg/mL: 100%
[4]
  inhibition at 20 µg/mL: 80%
[5]
  inhibition at 50 µg/mL: 80%
[6]
  inhibition at 20 µg/mL: 0%
[7]
  inhibition at 50 µg/mL: 100%

## CCOC(=O)c1cccc(NC(=O)n2c(=O)[nH]c3ccccc32)c1 [Example 9, N-(3-Ethoxycarbonylphenyl)-2,3-dihydro-2-oxo-1H-benzimidazole-1-carboxamide]
[1]
  inhibition at 100 µg/mL: 70%
[2]
  inhibition at 100 µg/mL: 10%

## O=C(Nc1ccccc1)n1c(=S)[nH]c2ccccc21 [Example 11, 2-Thioxo-2,3-dihydrobenzoimidazole-1-carboxylic acid phenylamide]
120 h, 4 μg/ml, day 5
  inhibition at 4 µg/mL: 0%
[5]
  inhibition at 50 µg/mL: 100%

## O=C(C1CCCN1)n1c(=O)[nH]c2ccccc21 (stereo not drawn) [Example 12, 1-(Pyrrolidine-2-carbonyl)-1,3-dihydrobenzoimidazol-2-one trifluoroacetic acid salt]
120 h, 4 μg/ml, day 5
  inhibition at 4 µg/mL: 50%
[4]
  inhibition at 20 µg/mL: 70%

## C=CCNC(=O)n1c(=O)[nH]c2ccccc21 [Example 13, 2-Oxo-2,3-dihydrobenzoimidazole-1-carboxylic acid allylamide]
120 h, 4 μg/ml, day 5
  inhibition at 4 µg/mL: 0%
[4]
  inhibition at 20 µg/mL: 20%

## O=C(Nc1ccccc1)n1c(=O)[nH]c2cncnc21 [Example 14, 8-Oxo-7,8-dihydropurine-9-carboxylic acid phenylamide]
120 h, 4 μg/ml, day 5
  inhibition at 4 µg/mL: 20%
[4]
  inhibition at 20 µg/mL: 40%
[5]
  inhibition at 50 µg/mL: 20%

## CC(C)(C)c1ccc(NC(=O)n2c(=O)[nH]c3ccccc32)cc1 [Example 16, 2-Oxo-2,3-dihydrobenzoimidazole-1-carboxylic acid (4-t-butylphenyl)amide]
[8]
  inhibition at 10 µg/mL: 10%

## O=C(Nc1ccccc1)n1c(=O)[nH]c2ccccc21 [Example 17, 2-Oxo-2,3-dihydrobenzimidazole-1-carboxylic acid phenylamide]
120 h, 4 μg/ml, day 5
  inhibition at 4 µg/mL: 50%
[4]
  inhibition at 20 µg/mL: 30%
[5]
  inhibition at 50 µg/mL: 95%

## O=C1NS(=O)(=O)c2ccc(NC(=O)n3c(=O)[nH]c4ccccc43)cc21 [Example 20, 2-oxo-2,3-dihydrobenzimidazole-1-carboxylic acid (1,1,3-trioxo-2,3-dihydro-1H-1λ^6-benzo[d]isothiazol-5-yl)amide]
[8]
  inhibition at 10 µg/mL: 100%
264 h, 10 μg/ml, day 11, read-out: Growth Inhibition Day 11 (%)
  inhibition at 10 µg/mL: 70%

## O=C(O)c1cc(NC(=O)n2c(=O)[nH]c3ccccc32)cc(C(=O)O)c1 [Example 23, 5-[(2-oxo-2,3-dihydrobenzimidazole-1-carbonyl)-amino]isophthalic acid]
[8]
  inhibition at 10 µg/mL: 10%

## O=C(Nc1ccc(OP(=O)(O)O)cc1)n1c(=O)[nH]c2ccccc21 [Example 26, Phosphoric acid mono-{4[(2-oxo-2,3-dihydrobenzimidazole-1-carbonyl)-amino]-phenyl} ester]
120 h, read-out: Growth Inhibition Day 5 (%)
  inhibition at 10 µg/mL: 90%
264 h, read-out: Growth Inhibition Day 11 (%)
  inhibition at 10 µg/mL: 40%

## O=C(Nc1ccc(B(O)O)cc1)n1c(=O)[nH]c2ccccc21 [Example 28, N-(phenyl-4-boronic acid)-2,3-dihydro-2-oxo-1H-benzimidazole-1-carboxamide]
4 μg/ml, day 11
  Growth Inhibition Day 11 (%): 20%
10 μg/ml, day 11
  Growth Inhibition Day 11 (%): 20%

## O=C([O-])c1cccc(NC(=O)n2c(=O)[nH]c3ccccc32)c1.[Na+] [Sodium salt of 3, N-(3-Carboxyphenyl)-2,3-dihydro-2-oxo-1H-benzimidazole-1-carboxamide Sodium Salt]
100 μg/ml, day 5
  Growth Inhibition Day 5 (%): 70%
100 μg/ml, day 11
  Growth Inhibition Day 11 (%): 80%
